In brackets after ≈: the same amount, converted by molar mass.
Legend:
[1] = Sedimentation of dispersed composition in water measured by turbidity (back scattering laser, Turbiscan MA 1000); format: physicochemical; conditions: 10 g in 90 ml distilled water at 20° C., bottom of tube
Description: 10 g of the water-dispersible pulverulent composition A is dispersed in 90 ml of distilled water at 20° C. in a tube. The sedimentation rate is measured by turbidity using a back scattering laser device (Turbiscan MA 1000) along the tube. The back light is measured along the tube at different time so that evolution of the sedimentation can be followed along time. The sedimentation is measured at the bottom of the tube.

[2] = Sedimentation test (stability of the dispersion): sediment size and dry content after 24 hours; format: physicochemical; conditions: 1.5 g in 8.5 ml demineralised water, 2 min vortex; for Dry content of the sediment: sediment after 24 hours
Description: The stability is measured by the sedimentation test as follow: • 10 ml of solution is prepared using 8.5 ml of demineralised water and 1.5 g of the pulverulent composition A or B in special sedimentation tubes graduated from 0.1 ml up to 10 ml; • complete dispersion is assumed by a 2 min vortex mixing; • sedimentation is controlled at defined times to evaluate the amount of sediment; • quality of the dispersion is evaluated by measuring: • the dispersion of the solids all over the aqueous solution by measuring the height of the sediments of the hydrated particles. For the same amount of pulverulent composition, the higher the sediments, the more dispersed the particles in the aqueous solution • the dry content of the sediment after 24 hours.

[3] = water; cited from earlier work
[4] = Natural sedimentation in conical graduated tube, 15% dispersion in distilled water; sediment volume and dry solids; format: physicochemical; conditions: 15% (net w/total w) in distilled water at 20° C., 10 ml
Description: The water-dispersible pulverulent composition A is dispersed in distilled water at 20° C. at a concentration of 15% (net w/total w) in a conical graduated sedimentation tube (total volume of the solution is 10 ml). The quantity of the sediment (in ml) is measured along time (Table 3).
The encapsulation efficiency can also be assessed by measuring the hydration of the granules of the water-dispersible pulverulent composition of the invention. This has been evaluated by measuring the dry solid content of the sediment (% dry matter) (Table 3).

## Cc1cc2nc3c(=O)[nH]c(=O)nc-3n(C[C@H](O)[C@H](O)[C@H](O)CO)c2cc1C [Riboflavin]
[1]; 2 min
  % Back light after 2 min dispersion: 2%
[1]; 6 min
  % Back light after 6 min dispersion: 3.1%
[2]; 24 h
  Sediment after 24 H: 1.5 mL
[2]; listed as Riboflavin (raw material)
  Dry content of the sediment: 39.4%
[2]; listed as Riboflavin (raw material) (control)
  Dry content of the sediment: 39.4%
[2]; listed as Riboflavine: Raw material (control)
  Dry content of the sediment: 39.4%
[3]
  solubility: 70 µg/mL (≈ 186 µM)
[4]; 1 hour
  Sediment volume after 1 Hour dispersion: 0.6 mL
[4]; 24 hours
  Dry solids content of the sediment after 24 Hour sedimentation: 39.3%
